Experimental data from patent US10584156B2, “Insulin analogues with a glucose-regulated conformational switch” (CASE WESTERN RESERVE UNIVERSITY, priority 2015, dated 2020).

Test: EDTA cobalt-sequestration assay of R6 insulin hexamer disassembly, with or without glucose
Assay type: physicochemical
Settings: 25 mM glucose vs none, pH 7.4, large excess of EDTA, phenol-stabilized Co^2+ R6 hexamer
Source text: Glucose-responsive rates of disassembly were investigated using a spectroscopy assay in which the visible absorption spectrum of a cobalt (Co^2+)-substituted insulin hexamer was obtained in the presence of phenol as an R6 hexamer.
This band arises front the unfilled d-shell electrons of the cobalt ion and is a specific signature of a tetrahedral coordination environment. Addition of a large excess of the chelating agent ethylene-diamine-tetra-acetic acid (EDTA) leads to progressive sequestration of the metal ion (in a colorless octahedral complex) and so provides a rapid and convenient probe of the kinetics of hexamer disassembly.
To this end, insulin analogues were made 0.6 mM in a buffer containing 50 mM Tris-HCl (pH 7.4), 50 mM phenol, 0.2 mM CoCl2, and 2 mM NaSCN in the absence of glucose or in the presence of 25 mM glucose. The sample pH was in each case 7.4, and samples were incubated overnight at room temperature prior to the studies to ensure that a conformational equilibrium was reached. Spectra (400-750 nm) were obtained to monitor tetrahedral Co^2+ coordination with its signature d-d absorption band at or near 574 nm. To determine the rate of Co^2+ release from the hexamers, metal-ion sequestration was initiated at 33° C. […] Attenuation of the 574-nm absorption band was monitored on a time scale of seconds to hours. […]

wild-type human insulin: Human insulin, A chain SEQ ID NO: 2 and B chain SEQ ID NO: 3
difference in rate of hexamer disassembly (loss of R-state-specific d-d band) in presence versus absence of glucose: No difference was observed
difference in rate of hexamer disassembly (loss of R-state-specific d-d band) in presence versus absence of glucose (listed as Wild-type insulin): the same rate of loss
